This is an account of results in patent publication US20040162350A1, “Method of treating a non-cancerous disease of the male prostate” (priority 2003, published 2004).

The test system of experiment [1] is prostate enlargement. In words: Treatment of a person with prostate enlargement diagnosed as a non-cancerous condition. The class given is in vivo, human. Particulars: 10 grams with each meal, total 40 grams daily. The text has this:
A person with prostate enlargement diagnosed as a non-cancerous condition started a regimen of taking 10 grams of 2-amino-4-carbamoylbutanoic acid with each meal for a total of 40 grams daily.

Experiment [2] concerns male volunteers. The experiment can be described thus: Number of night awakenings with the need to urinate, recorded by male volunteers over six-week trial periods. The class given is in vivo, human. The conditions noted are these: volunteers who woke three or more times a night in more than 28 nights of six-week baseline; multiple daily doses of 15-20 grams; result in at least two thirds of the nights of a subsequent six week trial period; seen in some volunteers. The text has this:
A group of male volunteers recorded for six weeks the number of times a night that they were awakened with the need to urinate. Those who woke up three or more times a night in more than 28 nights durng the six week trial were then given multiple daily doses of 15-20 grams of 2-amino-4-carbamoylbutanoic acid and continued to record the number of times a night that they were awakened with the need to urinate.

`NC(=O)CCC(N)C(=O)O` (stereo not drawn) [2-amino-4-carbamoylbutanoic acid]: the relief felt entry in experiment [1] (after a few weeks) is listed as “felt relief”. In experiment [1] (after two months of this regimen), the prostate size entry was “shrunk to normal size”. The “number of times a night awakened with the need to urinate” value in experiment [2] was “diminished from three or more times a night to twice, once, and even none at all”.
